This is an account of results in patent US20190053492A1, “SUBSTITUTED PYRIDINE COMPOUNDS AS PESTICIDES” (Bayer CropScience Aktiengesellschaft, priority 2016, published 2019).

The subject of one series is Spodoptera frugiperda. In words: Spodoptera frugiperda spray test. It is filed as in vivo. The settings on record: after 7 days, maize leaf discs; for pest or weed control at 500 g/ha / pest or weed control at 100 g/ha: Spodoptera frugiperda, foliar, 168 h, read-out: efficacy (caterpillars killed). The method in brief:
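Efficacy in % was scored at 7 days against armyworm caterpillars placed on dried, compound-sprayed Zea mays leaf discs. Compound was dissolved in acetone/dimethylformamide and diluted in water with 1000 ppm alkylaryl polyglycol ether. 100% means all caterpillars were killed.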

Series [1] is described as follows: log P by HPLC on reversed-phase column (C 18), EEC Directive 79/831 Annex V.A8. To be noted: 55° C.; for LOGP_HCOOH: log P (HCOOH); for chromatographic logP: reversed-phase HPLC column (C 18). It counts as physicochemical. On the procedure: Temperature: 55° C. […] Called log P (HCOOH) in the table. […] Called log P (neutral) in the table.
A further series has as its system Phaedon cochleariae. As to the kind of experiment: Phaedon cochleariae spray test. To be noted: after 7 days, Chinese cabbage leaf discs. It is filed as in vivo. The method in brief:
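Larval kill read at day 7 as percent, where 100% means every larva dead and 0% none; larvae were placed on dried Brassica pekinensis leaf discs previously sprayed with the formulation (acetone/dimethylformamide solvent, alkylaryl polyglycol ether emulsifier, water).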

Setting [2] is: acidic range pH 2.7, 0.1% aqueous formic acid and acetonitrile, reversed-phase column (C 18).
Setting [3] is: log P (neutral), HPLC reversed-phase column (C 18).
The mark [4] stands for this setting: log P, neutral range, HPLC on reversed-phase column (C 18).
[5] abbreviates: acidic range at pH 2.7, 0.1% aqueous formic acid and acetonitrile, HPLC on reversed-phase column (C 18).
The mark [6] stands for this setting: pH 7.8, LC-MS neutral range, pH 7.8, ammonium hydrogencarbonate/acetonitrile, read-out: log P (neutral).
Setting [7] is: Phaedon cochleariae, foliar, 168 h, application rate 500 g/ha, read-out: efficacy (beetle larvae killed).
The mark [8] stands for this setting: pH 2.7, LC-MS acidic range, pH 2.7, 0.1% formic acid/acetonitrile, read-out: log P (acidic) / log P (HCOOH).

Where two headings read alike, the source gives them in different places.

Turning to `N#Cc1ccc(CNC(=O)c2cc(-c3ccc(OC(F)(F)F)cc3)cc(NC(=O)CC(F)(F)F)n2)cc1` [Example I-241], the “efficacy (caterpillars killed)” value in the series on Spodoptera frugiperda (application rate 100 g/ha) and in the series with Spodoptera frugiperda (application rate 500 g/ha) was 100% in each case. In series [1] (setting [2]), this molecule displayed an LOGP_HCOOH of 3.90. This molecule also yielded an LOGP_NEUTRAL in series [1] (setting [3]) of 3.96. Also, in the series on Phaedon cochleariae (application rate 500 g/ha), the “efficacy (beetle larvae killed)” value was 100%.
As for `CC(NC(=O)c1cc(-c2ccc(C(F)(F)F)cc2)cc(NC(=O)C2CC2)n1)c1ccc(C(F)(F)F)cc1` (stereo not shown) [Example I-057], in the series on Spodoptera frugiperda (application rate 500 g/ha), the “efficacy (caterpillars killed)” value came to 100%. The LOGP_HCOOH in series [1] (setting [2]) is recorded as 4.91. Further, in series [1] (setting [4]), the LOGP_NEUTRAL amounted to 4.77. For the same molecule, the “efficacy (beetle larvae killed)” value in the series on Phaedon cochleariae (application rate 500 g/ha) was found to be 83%.
`O=C(NCc1ccc(C(F)(F)F)c(F)c1)c1cc(-c2ccc(C(F)(F)F)cc2)cc(NC(=O)C2CC2)n1` [Example I-064]: the “efficacy (caterpillars killed)” value in the series with Spodoptera frugiperda (application rate 100 g/ha) and in the series on Spodoptera frugiperda (application rate 500 g/ha) was 100% in each case. The LOGP_HCOOH in series [1] (setting [2]) came to 4.68. Besides, the LOGP_NEUTRAL in series [1] (setting [4]) worked out at 4.53. For the same molecule, in the series on Phaedon cochleariae (application rate 500 g/ha), the “efficacy (beetle larvae killed)” value amounted to 100%.
In the case of `N#Cc1ccc(CNC(=O)c2cc(-c3c(Cl)cc(C(F)(F)C(F)(F)F)cc3Cl)cc(NC(=O)C3CC3)n2)cc1` [Example I-265], the “efficacy (caterpillars killed)” value in the series with Spodoptera frugiperda (application rate 500 g/ha) worked out at 100%. In series [1] (setting [2]), this molecule had an LOGP_HCOOH of 4.51. The “efficacy (beetle larvae killed)” value in the series with Phaedon cochleariae (application rate 500 g/ha) amounted to 100%.
Consider `N#Cc1ccc(CNC(=O)c2cc(-c3c(Cl)cc(C(F)(F)C(F)(F)F)cc3Cl)cc(NC(=O)C3CC3)n2)cc1` [Example I-268], for which the “efficacy (caterpillars killed)” value in the series with Spodoptera frugiperda (application rate 100 g/ha) and in the series with Spodoptera frugiperda (application rate 500 g/ha) was 100% each time. In series [1] (setting [2]), this molecule returned an LOGP_HCOOH of 4.05. Further, the “efficacy (beetle larvae killed)” value with Phaedon cochleariae (application rate 100 g/ha) and with Phaedon cochleariae (application rate 500 g/ha) was 83% in each case.
For the molecule `C#CC1(NC(=O)c2cc(-c3ccc(OC(F)(F)F)cc3)cc(NC(=O)C3CC3)n2)CC1` [Example I-126], the figures for the “efficacy (caterpillars killed)” value in the series with Spodoptera frugiperda (application rate 100 g/ha) and with Spodoptera frugiperda (application rate 500 g/ha) were 83% and 100%, respectively. Also, the LOGP_HCOOH in series [1] (setting [5]) was 3.63. Moreover, the “efficacy (beetle larvae killed)” value with Phaedon cochleariae (application rate 500 g/ha) turned out to be 100%.
Regarding `Cc1cc(-c2cc(NC(=O)C3CC3)nc(C(=O)NCc3ccc(C#N)cc3)c2)ccc1C(F)(F)C(F)(F)F` [Example I-270], in the series with Spodoptera frugiperda (application rate 500 g/ha), the “efficacy (caterpillars killed)” value is listed as 100%. This molecule showed an LOGP_HCOOH in series [1] (setting [2]) of 4.45. For the same molecule, the “efficacy (beetle larvae killed)” value in the series with Phaedon cochleariae (application rate 500 g/ha) worked out at 100%.
With `N#Cc1ccc(CNC(=O)c2cc(-c3ccc(Cl)cc3)cc(NC(=O)C3CC3)n2)cc1` [Example I-020, 4-(4-Chlorophenyl)-N-(4-cyanobenzyl)-6-[(cyclopropylcarbonyl)amino]pyridine-2-carboxamide], the pest or weed control at 500 g/ha in the series with Spodoptera frugiperda (application rate 500 g/ha) and with Phaedon cochleariae (setting [7]) was 100% in each case. Besides, the LOGP_NEUTRAL in series [1] (setting [4]) stood at 3.54. In addition, the chromatographic logP was 3.6 in series [1] (pH 2.7, log P (HCOOH), acidic range pH 2.7, 0.1% aqueous formic acid and acetonitrile, reversed-phase column (C 18), read-out: LOGP_HCOOH); 3.54 in series [1] (setting [6]).
In the case of `N#Cc1ccc(CNC(=O)c2cc(-c3ccc(C(F)(F)F)cc3)cc(NC(=O)C3CC3)n2)cn1` [Example I-042], the entries for the “efficacy (caterpillars killed)” value in the series on Spodoptera frugiperda (application rate 100 g/ha) and with Spodoptera frugiperda (application rate 500 g/ha) were 83% and 100%, respectively. The molecule further yielded an LOGP_HCOOH in series [1] (setting [2]) of 3.36. In series [1] (setting [4]), the LOGP_NEUTRAL turned out to be 3.26. Moreover, the “efficacy (beetle larvae killed)” value in the series on Phaedon cochleariae (application rate 100 g/ha) and with Phaedon cochleariae (application rate 500 g/ha) was 100% throughout.
Turning to `N#Cc1ccc(/C=N/NC(=O)c2cc(-c3ccc(OC(F)(F)F)cc3)cc(NC(=O)C3CC3)n2)cc1` [Example I-252, N-(6-{[(2E)-2-(4-Cyanobenzylidene)hydrazino]carbonyl}-4-[4-(trifluoromethoxy)phenyl]pyridin-2-yl)cyclopropanecarboxamide], in the series on Spodoptera frugiperda (application rate 100 g/ha), the pest or weed control at 100 g/ha was 83%. Moreover, the pest or weed control at 500 g/ha in the series with Spodoptera frugiperda (application rate 500 g/ha) and in the series on Phaedon cochleariae (setting [7]) was 100% in each case. In series [1] (setting [2]), this molecule came in with an LOGP_HCOOH of 3.88. In addition, in series [1] (setting [3]), the LOGP_NEUTRAL came out at 3.83. For the same molecule, the chromatographic logP in series [1] (setting [8]) worked out at 3.88; in series [1] (setting [6]), 3.83.
With `C[C@H](NC(=O)c1cc(-c2ccc(C(F)(F)F)cc2)cc(NC(=O)C2CC2)n1)c1ccc(C(F)(F)F)cc1` [Example I-060], the “efficacy (caterpillars killed)” value with Spodoptera frugiperda (application rate 100 g/ha) is on record as 83%; in the series with Spodoptera frugiperda (application rate 500 g/ha), 100%. Besides, the LOGP_HCOOH in series [1] (setting [2]) turned out to be 4.89. Besides, the LOGP_NEUTRAL in series [1] (setting [4]) was 4.82. Besides, in the series with Phaedon cochleariae (application rate 500 g/ha), the “efficacy (beetle larvae killed)” value was 100%.
On to `O=C(NC1CCC(C(F)(F)F)CC1)c1cc(-c2ccc(OC(F)(F)F)cc2)cc(NC(=O)C2CC2)n1` (stereo not shown) [Example I-146], for which the “efficacy (caterpillars killed)” value in the series with Spodoptera frugiperda (application rate 500 g/ha) stood at 83%. This molecule also had an LOGP_HCOOH in series [1] (setting [5]) of 4.77. The same molecule registered an LOGP_NEUTRAL in series [1] (setting [4]) of 4.60. Further, in the series on Phaedon cochleariae (application rate 500 g/ha), the “efficacy (beetle larvae killed)” value is 100%.
Turning to `CC(NC(=O)c1cc(-c2ccc(C(F)(F)F)cc2)cc(N(C(=O)C2CC2)C(=O)C2CC2)n1)c1ccc(C#N)cc1` (stereo not shown) [Example I-039], the “efficacy (caterpillars killed)” value in the series with Spodoptera frugiperda (application rate 100 g/ha) and in the series on Spodoptera frugiperda (application rate 500 g/ha) was 100% each time. The LOGP_HCOOH in series [1] (setting [2]) worked out at 4.36. For the same molecule, the LOGP_NEUTRAL in series [1] (setting [4]) was found to be 4.31. The “efficacy (beetle larvae killed)” value in the series on Phaedon cochleariae (application rate 100 g/ha) and in the series on Phaedon cochleariae (application rate 500 g/ha) was 100% each time.
Consider `N#Cc1ccc(CNC(=O)c2cc(-c3ccc(OC(F)(F)C(F)(F)F)cc3)cc(NC(=O)C3CC3)n2)cc1` [Example I-191], for which the “efficacy (caterpillars killed)” value with Spodoptera frugiperda (application rate 500 g/ha) was 100%. In series [1] (setting [5]), this molecule displayed an LOGP_HCOOH of 4.38. The “efficacy (beetle larvae killed)” value in the series on Phaedon cochleariae (application rate 500 g/ha) is listed as 83%.
For the molecule `O=C(NC(=O)C1CC1)c1cc(-c2ccc(C(F)(F)C(F)(F)F)c(F)c2)cc(NC(=O)C2CC2)n1` [Example I-264, N-(Cyclopropylcarbonyl)-6-[(cyclopropylcarbonyl)amino]-4-[3-fluoro-4-(pentafluoroethyl)-phenyl]pyridine-2-carboxamide], the pest or weed control at 100 g/ha in the series on Spodoptera frugiperda (application rate 100 g/ha) turned out to be 100%; with Phaedon cochleariae (Phaedon cochleariae, foliar, 168 h, application rate 100 g/ha, read-out: efficacy (beetle larvae killed)), 100%. Further, the pest or weed control at 500 g/ha with Spodoptera frugiperda (application rate 500 g/ha) and with Phaedon cochleariae (setting [7]) was 100% throughout. The LOGP_HCOOH in series [1] (setting [2]) came to 4.62. The same molecule returned an LOGP_NEUTRAL in series [1] (setting [3]) of 4.53. The chromatographic logP in series [1] (setting [8]) was found to be 4.62; in series [1] (setting [6]) it was 4.53.
As for `O=C(NC1CCOC1=O)c1cc(-c2ccc(OC(F)(F)F)cc2)cc(NC(=O)C2CC2)n1` (stereo not shown) [Example I-135], the “efficacy (caterpillars killed)” value in the series with Spodoptera frugiperda (application rate 500 g/ha) came out at 100%. Moreover, in series [1] (setting [5]), the LOGP_HCOOH was found to be 3.11. Also, the “efficacy (beetle larvae killed)” value in the series on Phaedon cochleariae (application rate 500 g/ha) is recorded as 83%.
For `O=C(NCC(F)(F)F)c1cc(-c2ccc(C(F)(F)F)cc2)cc(NC(=O)C2CC2)n1` [Example I-009], in the series on Spodoptera frugiperda (application rate 500 g/ha), the “efficacy (caterpillars killed)” value is reported as 100%. The same molecule gave an LOGP_HCOOH in series [1] (setting [2]) of 3.82. In addition, the LOGP_NEUTRAL in series [1] (setting [4]) is recorded as 3.77. For the same molecule, the “efficacy (beetle larvae killed)” value in the series with Phaedon cochleariae (application rate 500 g/ha) was determined as 100%.
For the molecule `N#Cc1ccc(CNC(=O)c2cc(-c3ccc(OC(F)(F)F)cc3)cc(NC(=O)C3CC3)n2)nc1` [Example I-106], the “efficacy (caterpillars killed)” value in the series on Spodoptera frugiperda (application rate 100 g/ha) stood at 80%; with Spodoptera frugiperda (application rate 500 g/ha), 100%. The LOGP_HCOOH in series [1] (setting [2]) is recorded as 3.42. The molecule further yielded an LOGP_NEUTRAL in series [1] (setting [4]) of 3.33. In addition, in the series with Phaedon cochleariae (application rate 100 g/ha), the “efficacy (beetle larvae killed)” value was determined as 100%.
Regarding `COC1(NC(=O)c2cc(-c3ccc(C(F)(F)C(F)(F)F)c(F)c3)cc(NC(=O)C3CC3)n2)CC1` [Example I-244], the “efficacy (caterpillars killed)” value in the series with Spodoptera frugiperda (application rate 100 g/ha) and in the series on Spodoptera frugiperda (application rate 500 g/ha) was 100% throughout. In addition, the LOGP_HCOOH in series [1] (setting [2]) is on record as 4.08. The molecule further registered an LOGP_NEUTRAL in series [1] (setting [3]) of 4.08. Further, the “efficacy (beetle larvae killed)” value in the series on Phaedon cochleariae (application rate 100 g/ha) and in the series with Phaedon cochleariae (application rate 500 g/ha) was 100% each time.
